In the experiment the target is E. coli dihydrofolate reductase (DHFR) (Escherichia coli, UniProt P0ABQ4). Kind of experiment: steady-state kinetics dose response. The class given is biochemical.

pIC50: −log10 of the molar value.

Sequence of E. coli dihydrofolate reductase (DHFR) (P0ABQ4 whole entry): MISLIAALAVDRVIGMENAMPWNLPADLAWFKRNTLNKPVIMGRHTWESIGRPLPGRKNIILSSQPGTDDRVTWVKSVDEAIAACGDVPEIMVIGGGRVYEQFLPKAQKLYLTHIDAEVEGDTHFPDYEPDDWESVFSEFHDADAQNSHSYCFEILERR

As for `COc1cc2c(Nc3ccc(Br)cc3F)ncnc2cc1OCC1CCN(C)CC1` [NSC760766, Vandetanib], the pIC50 (as a rule, −log10 of the IC50, conventionally taken in molar units) is approximately 4.41.

Source of the values: paper PMC8243409 (Journal of chemical information and modeling, 2021).
